# Experimental data from patent US9302999B2, “Substituted triazoles as herbicides” (E. I. DU PONT DE NEMOURS AND COMPANY, priority 2012, dated 2016).
# Tests used:
# Format in all cases: in vivo
# [1] = tested on: barnyardgrass (Echinochloa crus-galli); assay: Test A pre-/postemergence: barnyardgrass; details: for Barnyardgrass plant response rating: Postemergence; for Plant response rating, Barnyardgrass: Preemergence
# How it was run: (§1)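 Pre: directed soil spray after planting in loam + sand. Post: same formulation (non-phytotoxic solvent + surfactant) on 1–2-leaf plants, 2–10 cm. Greenhouse ~10 d; visual injury 0–100 vs untreated.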
# [2] = tested on: crabgrass, large (large crabgrass, Digitaria sanguinalis); assay: Test A pre-/postemergence: crabgrass, large; details: for Crabgrass, Large plant response rating: Postemergence; for Plant response rating, Crabgrass, Large: Preemergence
# How it was run: as §1
# [3] = tested on: foxtail, giant (giant foxtail, Setaria faberii); assay: Test A pre-/postemergence: foxtail, giant; details: for Foxtail, Giant plant response rating: Postemergence; for Plant response rating, Foxtail, Giant: Preemergence
# How it was run: as §1
# [4] = tested on: morningglory (Ipomoea spp.); assay: Test A pre-/postemergence: morningglory; details: for Morningglory plant response rating: Postemergence; for Plant response rating, Morningglory: Preemergence
# How it was run: as §1
# [5] = tested on: pigweed (Amaranthus retroflexus); assay: Test A pre-/postemergence: pigweed; details: for Pigweed plant response rating: Postemergence; for Plant response rating, Pigweed: Preemergence
# How it was run: as §1
# [6] = tested on: velvetleaf (Abutilon theophrasti); assay: Test A pre-/postemergence: velvetleaf; details: for Velvetleaf plant response rating: Postemergence; for Plant response rating, Velvetleaf: Preemergence
# How it was run: as §1
# [7] = tested on: wheat (Triticum aestivum); assay: Test A pre-/postemergence: wheat; details: for Wheat plant response rating: Postemergence; for Plant response rating, Wheat: Preemergence
# How it was run: as §1
# [8] = tested on: corn (Zea mays); assay: Test A pre-/postemergence: corn; details: for Corn plant response rating: Postemergence; for Plant response rating, Corn: Preemergence
# How it was run: as §1
# [9] = tested on: rice (Oryza sativa); assay: Test C flooded paddy test: rice; details: scale 0 to 100 (0 no effect, 100 complete control)
# How it was run: (§2)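 Greenhouse plants treated at the 2-leaf stage by dosing the flood water (3 cm depth, maintained) were compared with controls after 13 to 15 days and rated 0 to 100, where 100 means complete control; a dash marks no test result.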
# [10] = tested on: sedge, umbrella (small-flower umbrella sedge, Cyperus difformis); assay: Test C flooded paddy test: sedge, umbrella; details: scale 0 to 100 (0 no effect, 100 complete control)
# How it was run: as §2
# [11] = tested on: ducksalad (Heteranthera limosa); assay: Test C flooded paddy test: ducksalad; details: scale 0 to 100 (0 no effect, 100 complete control)
# How it was run: as §2
# [12] = tested on: barnyardgrass (Echinochloa crus-galli); assay: Test C flooded paddy test: barnyardgrass; details: scale 0 to 100 (0 no effect, 100 complete control)
# How it was run: as §2
# [13] = 125 g ai/ha, 0 to 100 scale, 0 is no effect, 100 is complete control
# [14] = 500 g ai/ha, visual rating on 0 to 100 scale (0 no effect, 100 complete control), approximately ten days
# [15] = 125 g ai/ha, 0 to 100 scale (0 no effect, 100 complete control)
# [16] = 500 g ai/ha, 0 to 100 scale, 0 is no effect, 100 is complete control
# [17] = Flood (flooded paddy test), 62 g ai/ha, visual rating after 13 to 15 days
# [18] = Flood (flooded paddy test), 125 g ai/ha, visual rating after 13 to 15 days
# [19] = Flood (flooded paddy test), 250 g ai/ha, visual rating after 13 to 15 days
structure (smiles),measurement,setting,value
Cc1nn(-c2ccccn2)nc1C(=O)c1cccc(C(F)(F)F)c1 [Compound 60],Barnyardgrass plant response rating,[1]; [13],0
same,Barnyardgrass plant response rating,[1]; [14],10
same,"Plant response rating, Barnyardgrass",[1]; [15],0
same,"Plant response rating, Barnyardgrass",[1]; [16],0
same,"Crabgrass, Large plant response rating",[2]; [13],0
same,"Crabgrass, Large plant response rating",[2]; [14],10
same,"Plant response rating, Crabgrass, Large",[2]; [15],0
same,"Plant response rating, Crabgrass, Large",[2]; [16],0
same,"Foxtail, Giant plant response rating",[3]; [13],0
same,"Foxtail, Giant plant response rating",[3]; [14],0
same,"Plant response rating, Foxtail, Giant",[3]; [15],0
same,"Plant response rating, Foxtail, Giant",[3]; [16],0
same,Morningglory plant response rating,[4]; [13],0
same,Morningglory plant response rating,[4]; [14],0
same,"Plant response rating, Morningglory",[4]; [15],0
same,"Plant response rating, Morningglory",[4]; [16],0
same,Pigweed plant response rating,[5]; [13],0
same,Pigweed plant response rating,[5]; [14],10
same,"Plant response rating, Pigweed",[5]; [15],0
same,"Plant response rating, Pigweed",[5]; [16],0
same,Velvetleaf plant response rating,[6]; [13],0
same,Velvetleaf plant response rating,[6]; [14],0
same,"Plant response rating, Velvetleaf",[6]; [15],0
same,"Plant response rating, Velvetleaf",[6]; [16],0
same,Wheat plant response rating,[7]; [13],0
same,Wheat plant response rating,[7]; [14],0
same,"Plant response rating, Wheat",[7]; [15],0
same,"Plant response rating, Wheat",[7]; [16],0
same,Corn plant response rating,[8]; [13],0
same,Corn plant response rating,[8]; [14],10
same,"Plant response rating, Corn",[8]; [15],0
same,"Plant response rating, Corn",[8]; [16],0
same,"Plant response rating, Rice",[9]; [17],0
same,"Plant response rating, Rice",[9]; [18],0
same,"Plant response rating, Rice",[9]; [19],0
same,"Plant response rating, Rice","[9]; Flood, 31 g ai/ha",0
same,"Plant response rating, Sedge, Umbrella",[10]; [17],0
same,"Plant response rating, Sedge, Umbrella",[10]; [18],0
same,"Plant response rating, Sedge, Umbrella",[10]; [19],0
same,"Plant response rating, Sedge, Umbrella","[10]; Flood, 31 g ai/ha",0
same,"Plant response rating, Ducksalad",[11]; [17],0
same,"Plant response rating, Ducksalad",[11]; [18],0
same,"Plant response rating, Ducksalad",[11]; [19],0
same,"Plant response rating, Ducksalad","[11]; Flood, 31 g ai/ha",0
same,"Plant response rating, Barnyardgrass",[12]; [17],0
same,"Plant response rating, Barnyardgrass",[12]; [18],0
same,"Plant response rating, Barnyardgrass",[12]; [19],0
same,"Plant response rating, Barnyardgrass","[12]; Flood, 31 g ai/ha",0
COc1nn(-c2ccc(C(F)(F)F)cc2)nc1C(C)(O)c1ccnc(C(F)(F)F)c1 (stereo not drawn) [Compound 79],Barnyardgrass plant response rating,[1]; [13],0
same,Barnyardgrass plant response rating,[1]; [14],0
same,"Plant response rating, Barnyardgrass",[1]; [15],0
same,"Plant response rating, Barnyardgrass",[1]; [16],0
same,"Crabgrass, Large plant response rating",[2]; [13],0
same,"Crabgrass, Large plant response rating",[2]; [14],0
same,"Plant response rating, Crabgrass, Large",[2]; [15],0
same,"Plant response rating, Crabgrass, Large",[2]; [16],0
same,"Foxtail, Giant plant response rating",[3]; [13],0
same,"Foxtail, Giant plant response rating",[3]; [14],10
same,"Plant response rating, Foxtail, Giant",[3]; [15],0
same,"Plant response rating, Foxtail, Giant",[3]; [16],0
same,Morningglory plant response rating,[4]; [13],0
same,Morningglory plant response rating,[4]; [14],0
same,"Plant response rating, Morningglory",[4]; [15],0
same,"Plant response rating, Morningglory",[4]; [16],0
same,Pigweed plant response rating,[5]; [13],0
same,Pigweed plant response rating,[5]; [14],0
same,"Plant response rating, Pigweed",[5]; [15],0
same,"Plant response rating, Pigweed",[5]; [16],0
same,Velvetleaf plant response rating,[6]; [13],0
same,Velvetleaf plant response rating,[6]; [14],0
same,"Plant response rating, Velvetleaf",[6]; [15],0
same,"Plant response rating, Velvetleaf",[6]; [16],0
same,Wheat plant response rating,[7]; [13],0
same,Wheat plant response rating,[7]; [14],0
same,"Plant response rating, Wheat",[7]; [15],0
same,"Plant response rating, Wheat",[7]; [16],0
same,Corn plant response rating,[8]; [13],0
same,Corn plant response rating,[8]; [14],0
same,"Plant response rating, Corn",[8]; [15],0
same,"Plant response rating, Corn",[8]; [16],0
same,"Plant response rating, Rice",[9]; [18],0
same,"Plant response rating, Rice",[9]; [19],0
same,"Plant response rating, Rice","[9]; Flood, 31 g ai/ha",0
same,"Plant response rating, Rice","[9]; Flood, 62 g ai/ha",0
same,"Plant response rating, Sedge, Umbrella",[10]; [18],0
same,"Plant response rating, Sedge, Umbrella",[10]; [19],0
same,"Plant response rating, Sedge, Umbrella","[10]; Flood, 31 g ai/ha",0
same,"Plant response rating, Sedge, Umbrella","[10]; Flood, 62 g ai/ha",0
same,"Plant response rating, Ducksalad",[11]; [18],0
same,"Plant response rating, Ducksalad",[11]; [19],0
same,"Plant response rating, Ducksalad","[11]; Flood, 31 g ai/ha",0
same,"Plant response rating, Ducksalad","[11]; Flood, 62 g ai/ha",0
same,"Plant response rating, Barnyardgrass",[12]; [18],0
same,"Plant response rating, Barnyardgrass",[12]; [19],0
same,"Plant response rating, Barnyardgrass","[12]; Flood, 31 g ai/ha",0
same,"Plant response rating, Barnyardgrass","[12]; Flood, 62 g ai/ha",0
Cc1nn(-c2ccc(C(F)(F)F)cc2)nc1Oc1ccnc(OCC(F)(F)F)c1 [Compound 77],Barnyardgrass plant response rating,[1]; [13],0
same,Barnyardgrass plant response rating,[1]; [14],10
same,"Plant response rating, Barnyardgrass",[1]; [15],0
same,"Plant response rating, Barnyardgrass",[1]; [16],0
same,"Crabgrass, Large plant response rating",[2]; [13],10
same,"Crabgrass, Large plant response rating",[2]; [14],20
same,"Plant response rating, Crabgrass, Large",[2]; [15],0
same,"Plant response rating, Crabgrass, Large",[2]; [16],10
same,"Foxtail, Giant plant response rating",[3]; [13],10
same,"Foxtail, Giant plant response rating",[3]; [14],20
same,"Plant response rating, Foxtail, Giant",[3]; [15],0
same,"Plant response rating, Foxtail, Giant",[3]; [16],10
same,Morningglory plant response rating,[4]; [13],10
same,Morningglory plant response rating,[4]; [14],10
same,"Plant response rating, Morningglory",[4]; [15],0
same,"Plant response rating, Morningglory",[4]; [16],0
same,Pigweed plant response rating,[5]; [13],90
same,Pigweed plant response rating,[5]; [14],100
same,"Plant response rating, Pigweed",[5]; [15],0
same,"Plant response rating, Pigweed",[5]; [16],10
same,Velvetleaf plant response rating,[6]; [13],10
same,Velvetleaf plant response rating,[6]; [14],10
same,"Plant response rating, Velvetleaf",[6]; [15],0
same,"Plant response rating, Velvetleaf",[6]; [16],0
same,Wheat plant response rating,[7]; [13],0
same,Wheat plant response rating,[7]; [14],0
same,"Plant response rating, Wheat",[7]; [15],0
same,"Plant response rating, Wheat",[7]; [16],0
same,Corn plant response rating,[8]; [13],0
same,Corn plant response rating,[8]; [14],10
same,"Plant response rating, Corn",[8]; [15],0
same,"Plant response rating, Corn",[8]; [16],0
same,"Plant response rating, Rice",[9]; [18],0
same,"Plant response rating, Rice",[9]; [19],0
same,"Plant response rating, Rice","[9]; Flood, 31 g ai/ha",0
same,"Plant response rating, Rice","[9]; Flood, 62 g ai/ha",0
same,"Plant response rating, Sedge, Umbrella",[10]; [18],0
same,"Plant response rating, Sedge, Umbrella",[10]; [19],0
same,"Plant response rating, Sedge, Umbrella","[10]; Flood, 31 g ai/ha",0
same,"Plant response rating, Sedge, Umbrella","[10]; Flood, 62 g ai/ha",0
same,"Plant response rating, Ducksalad",[11]; [18],0
same,"Plant response rating, Ducksalad",[11]; [19],0
same,"Plant response rating, Ducksalad","[11]; Flood, 31 g ai/ha",0
same,"Plant response rating, Ducksalad","[11]; Flood, 62 g ai/ha",0
same,"Plant response rating, Barnyardgrass",[12]; [18],0
same,"Plant response rating, Barnyardgrass",[12]; [19],0
same,"Plant response rating, Barnyardgrass","[12]; Flood, 31 g ai/ha",0
same,"Plant response rating, Barnyardgrass","[12]; Flood, 62 g ai/ha",0
